Values quoted from earlier work as cited in patent US20140148399A1, “Compositions and methods for treating or ameliorating obesity or for reducing diabetic hypercholesterolemia” (UNIVERSITY OF TSUKUBA, priority 2012, published 2014).

Tested on: 3T3-L1 cells

COc1cc(-c2oc3cc(O)cc(O)c3c(=O)c2O)ccc1O [Isorhamnetin]
adiponectin expression and secretion: reduces
C/EBP-α and PPAR-γ mRNA levels (3T3-L1 adipocyte differentiation): reducing
adipogenesis in 3T3-L1 cells (by inhibiting 3T3-L1 adipocyte differentiation): represses adipogenesis
